# In patent US5420158A, “Naphthylalkylamines” (Adir et Compagnie, priority 1992, dated 1995):
# Tested on: Xenopus melanophores
# Assay: Melatonin-antagonist activity with respect to pigment aggregation
# Type: cell-based, Xenopus laevis
# Settings: compound at 10^-7 M, melatonin 10^-8 M
# Description: Melatonin is known to participate in regulation of the skin color of amphibians such as Xenopus (Xenopus laevis). It causes condensation of the […] granules in the melanophores of the dermis (Sugden D. European Journal of Pharmacology, vol. 213, pp: 405-408 (1992)).
# The compounds of the invention were tested for their capacity to inhibit the effect of melatonin on Xenopus melanophores.
# (According to the method described in Sugden D. Br. J. Pharmacol. vol. 104, pp 922-927, (1991)).
# The neural crest of Xenopus embryos is dissected and the cells are isolated. The melanophores which appear after 2-3 days of culture are rapidly visible among the other cells emanating from the neural crest. The melanophores are cultured in Leibovitz L-15 medium (Gibco) and diluted (1/1) with deionized water containing 10% of fetal calf serum, 200 IU/cm^3 of penicillin, 200 μg/cm^3 of streptomycin and 2.5 μg/cm^3 of amphotericin B.
# The experiments on the melanophores are carried out between days 7 and 12 of the culture.
# The response of the isolated melanophores to melatonin is quantified by measuring the pigmented area using a computer-assisted image analyzer. The test compounds are added to the culture medium 10 to 15 min before the measurement.
compound,measurement,value
"O=C(NCCc1cccc2ccccc12)C1CCC1 [Example 1, N-[2-(1-naphthyl)ethyl]cyclobutanecarboxamide]",antagonism of the action of melatonin on pigment aggregation,significantly antagonizes the action of melatonin
